Test results published in patent US20090069740A1, “PROTECTED DONOR ELECTRODES FOR ELECTRO-TRANSPORT DRUG DELIVERY” (POLYPLUS BATTERY COMPANY, priority 2007, published 2009).

Experiment: In vitro Li delivery through pig skin in a flow-through Li-AgCl cell (protected Li metal foil donor electrode)
Type: in vitro ADME
Settings: ICP-MS
Protocol: The glass receptor compartment was similar to one described by Phipps et al. (1988) Solid-state Ionics 28-30: 1778-1783, for ionophoretic drug delivery experiments. The receptor compartment was filled with RPMI-1640 Medium (Sigma Aldrich). The antibiotic gentamicin sulphate was added to the receptor compartment fluid to inhibit bacterial growth.
The prepared skin was stored in RPMI-1640 medium overnight before the start of the experiment. The skin was placed on the receptor chamber and kept in place and stretched out with an O-ring around the neck of the chamber. The visceral surface of the skin was in contact with the receptor fluid.
A square 1 cm×1 cm silver chloride cathode with a capacity of approximately 40 mAh was introduced into the receptor chamber through a port. A multi-channel peristaltic pump was used to create a flow of the RPMI-1640 medium through receptor compartments of several cells. […]
The donor-acceptor chamber assembly was kept in place using a clamp. […] Li content in the fluid samples taken from receptor compartment was analyzed by ICP-MS.
Over the duration of the experiment (27 hrs at a current density of 0.1 mA/cm^2 and 24 hrs at a current density of 0.2 mA/cm^2), receptor fluid samples were taken and analyzed.
The rate of Li delivery into the receptor compartment was calculated as a product of Li concentration and the flow rate of the receptor fluid.

In the case of `[Li+]` [Li, lithium], the “initial Li content of receptor solution” value (before current passing) was no more than 6 µg/L and the “Li content in receptor fluid samples” value (constant current 0.1 mA/cm^2 (27 hrs) and 0.2 mA/cm^2 (24 hrs), 37° C, RPMI-1640 receptor fluid, flow rate 2.1 mL/hr, FIG. 9) was “gradually increased over time and was significantly larger for the rate of 0.2 mA/cm^2 than for 0.1 mA/cm^2”.
